Measurements: ChEMBL document CHEMBL1201862, “PubChem BioAssay data set” (2004)
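Step 1: Grow cells in 96-well plates. Step 2: Expose to compound for 48 hours at 5 concentrations. Step 3: Interpolate endpoints linearly; if unreached, use highest concentration. At the GI50, growth is halved.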 The source made the active and inactive calls. Rule as the data show it: active = GI50 up to about 1.1 µM and inactive = higher.

Tests used:
Test in all cases: DTP human tumour cell line panel, 48 h
[1] = tested on: EKVX
[2] = tested on: LOX IMVI
[3] = tested on: RXF 393
[4] = tested on: SF-295
[5] = tested on: HCT-15
[6] = tested on: NCI-H23
[7] = tested on: ACHN
[8] = tested on: K562
[9] = tested on: OVCAR-3
[10] = tested on: CAKI-1
[11] = tested on: SF-268
[12] = tested on: HOP-92
[13] = tested on: SK-MEL-28
[14] = tested on: SR
[15] = tested on: COLO 205
[16] = tested on: NCI-H522
[17] = tested on: UO-31
[18] = tested on: SN12C
[19] = tested on: OVCAR-4

Measured: GI50

CCCCCCCCCCOC(=O)c1cc[n+](C)cc1
15.9 µM: [5]
inactive: [1] 16.7 µM | [2] 17.6 µM | [3] 19.7 µM | [4] 16.7 µM | [6] 19.9 µM | [7] 18.6 µM | [8] 16.3 µM | [9] 15.6 µM | [10] 16.6 µM | [11] 20 µM | [12] 15.8 µM | [13] 17.4 µM | [14] 16.3 µM | [15] 16.7 µM | [16] 16.1 µM | [17] 16.5 µM | [18] 16.9 µM | [19] 18.1 µM

O=C1Nc2ccc(Br)cc2/C1=N/Nc1ccc([N+](=O)[O-])cc1[N+](=O)[O-]
3.12 µM: [5]
inactive: [1] 11.3 µM | [2] 1.73 µM | [3] 4.15 µM | [4] 3.91 µM | [6] 2.49 µM | [7] 2.82 µM | [8] 3.05 µM | [9] 5.82 µM | [10] 13.9 µM | [11] 4.33 µM | [12] 1.98 µM | [13] 3.33 µM | [14] 2.86 µM | [15] 2.47 µM | [16] 2.42 µM | [17] 2.48 µM | [18] 3.04 µM

CCCCN(CCCC)C(=O)C(=O)CC(=O)/C=C/c1ccccc1
inactive: [1] > 100 µM | [2] > 100 µM | [3] > 100 µM | [4] > 100 µM | [6] > 100 µM | [7] > 100 µM | [8] > 100 µM | [9] > 100 µM | [10] > 100 µM | [11] > 100 µM | [12] > 100 µM | [13] > 100 µM | [14] > 100 µM | [15] > 100 µM | [16] > 100 µM | [17] > 100 µM | [18] > 100 µM | [19] > 100 µM
> 100 µM: [5]

C/C(CC(=O)Nc1ccc(C)c(C)c1)=N\N(c1ccccc1)c1ccccc1
49 µM: [5]
inactive: [1] > 100 µM | [2] 36.1 µM | [3] 63.2 µM | [4] > 100 µM | [6] > 100 µM | [7] 58.9 µM | [8] 26.2 µM | [9] > 100 µM | [10] 80.7 µM | [11] 58.7 µM | [12] > 100 µM | [13] 68.1 µM | [14] 22.4 µM | [15] 18.3 µM | [16] 15.2 µM | [17] 46 µM | [18] 42.9 µM | [19] 43.4 µM

O=c1c2cc(Br)ccc2nc(CNc2ccccc2)n1-c1ccccc1
inactive: [1] 21.9 µM | [2] 7.5 µM | [3] 15.7 µM | [4] 24.2 µM | [6] 13.6 µM | [7] 18.7 µM | [8] 14.6 µM | [9] 21.8 µM | [10] 3.02 µM | [11] 17.4 µM | [12] 19.1 µM | [13] 22.4 µM | [14] 6.52 µM | [15] 17.4 µM | [16] 6.84 µM | [17] > 43.9 µM | [18] 14.1 µM | [19] 6.38 µM
16.7 µM: [5]

NCc1cccc(O)c1O
> 100 µM: [5]
inactive: [1] > 100 µM | [2] > 100 µM | [3] > 100 µM | [4] > 100 µM | [7] > 100 µM | [8] > 100 µM | [9] > 100 µM | [10] > 100 µM | [11] > 100 µM | [12] > 100 µM | [13] > 100 µM | [14] > 100 µM | [15] > 100 µM | [16] > 100 µM | [17] > 100 µM | [18] > 100 µM | [19] > 100 µM

[N-]=[N+]=NC(c1cn(C2CC(O)C(CO)O2)c(=O)[nH]c1=O)C(Br)I (configuration not stated)
> 100 µM: [5]
inactive: [1] > 100 µM | [2] > 100 µM | [3] > 100 µM | [4] > 100 µM | [6] > 100 µM | [7] > 100 µM | [8] > 100 µM | [9] > 100 µM | [10] > 100 µM | [12] > 100 µM | [13] > 100 µM | [14] > 100 µM | [15] > 100 µM | [16] > 100 µM | [17] > 100 µM | [18] > 100 µM

CC1(C)CCc2cc3c(cc2O1)OCCC3=O
> 100 µM: [5]
inactive: [1] > 100 µM | [2] > 100 µM | [3] > 100 µM | [4] > 100 µM | [6] > 100 µM | [7] > 100 µM | [8] > 100 µM | [9] > 100 µM | [10] 92.7 µM | [11] > 100 µM | [12] > 100 µM | [14] 58.1 µM | [15] > 100 µM | [16] > 100 µM | [17] 94.2 µM | [18] > 100 µM | [19] > 100 µM
